# Data taken from patent publication US8343934B2, “Diverse lead compound autotaxin inhibitors” (University of Memphis, priority 2009, dated 2013).
# Molecular target: T1, ATX (Homo sapiens, UniProt Q13822)
# T1 construct: conditioned serum-free medium (CCM) from MDA-MB-435 cells as the source of ATX; endogenous in cells; host or cells: MDA-MB-435 cells (about 10x concentrated conditioned serum-free medium)
# Assay: ATX inhibition assay (FS-3 substrate)
# Assay type: biochemical
# Settings: preliminary screen; FS-3 hydrolysis at one hour, normalized to vehicle control, mean±S.D.; same values given at 10 μM in Table 5
# Outline: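 Conditioned serum-free medium from MDA-MB-435 cells served as the ATX source. FS-3 hydrolysis was followed by fluorescence (ex 485/em 528 nm) at 37 °C, read every minute, in Tris pH 8.0 buffer with Ca2+, Mg2+ and 30 μM fatty-acid-free BSA. Readings were blank-subtracted without medium and normalized to vehicle.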
structure (smiles),measurement,value
COc1ccc(/C=N/N=C(N)/C(N)=N/N=C/c2ccc(OC)c(S(=O)(=O)O)c2)cc1S(=O)(=O)O.[Na+] [compound 46954],% Response,92 ± 3.9%
